The target of the assay is T1, Low molecular weight protein-tyrosine phosphatase A (Mycobacterium tuberculosis (strain ATCC 25618 / H37Rv), UniProt P9WIA1).
T1 sequence (P9WIA1 whole entry): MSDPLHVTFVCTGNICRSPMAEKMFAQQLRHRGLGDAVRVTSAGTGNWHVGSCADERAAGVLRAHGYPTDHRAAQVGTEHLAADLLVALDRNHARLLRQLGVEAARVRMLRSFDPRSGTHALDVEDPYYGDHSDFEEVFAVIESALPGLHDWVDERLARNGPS
Kind of assay: Inhibition of Mycobacterium tuberculosis PTP-A.

The structures appear in SMILES notation.

`COc1cc(-c2[nH]ccc2Cl)oc1C1=c2[nH]c3cc2[C@H](C(C)C)[C@H]1CCCCCCCC=3` came in with an IC50 of 8.8 µM.
In the case of `C=c1[nH]c(=Cc2[nH]c(-c3ccc[nH]3)cc2OC)cc1CCCCC` [PRODIGIOSIN] it was 8.8 µM.

As a reminder, the IC50 is the concentration that gives 50% inhibition. The low end stands for greater potency, the high end for weaker potency.

For the origin of these results see BindingDB's records for doi:10.1021/jm2012062 (Universidade Federal De Santa Catarina, 2012).
